Test results reported in patent US20240270809A1, “ORAL GLP RECEPTOR AGONISTS” (priority 2020, published 2024).
Positions of bridges follow the written chain, without caps; N, C: chain ends. Non-standard residues stand in square brackets, D forms with d. Residues, ends and D or L forms follow the SMILES beside them. αMeL = CC(C)C[C@](C)(N)C(=O)O; Nle = CCCC[C@H](N)C(=O)O; Aib = CC(C)(N)C(=O)O

Experiments:
[1] = target: T1, human GLP2 receptor (Homo sapiens, UniProt O95838); assay: cAMP accumulation assay, functional agonism of human GLP2 receptor; format: cell-based; conditions: HEK cells infected with human GLP2 receptor BacMam virus, HTRF cAMP; for Emax: HEK293, read-out: Human GLP-2R agonist cAMP Emax; for EC50: read-out: Human GLP-2R agonist cAMP pEC50 (converted)
T1 construct: expressed in transfected cells; host or cells: HEK cells, BacMam virus transduction
T1 sequence (O95838 1-553): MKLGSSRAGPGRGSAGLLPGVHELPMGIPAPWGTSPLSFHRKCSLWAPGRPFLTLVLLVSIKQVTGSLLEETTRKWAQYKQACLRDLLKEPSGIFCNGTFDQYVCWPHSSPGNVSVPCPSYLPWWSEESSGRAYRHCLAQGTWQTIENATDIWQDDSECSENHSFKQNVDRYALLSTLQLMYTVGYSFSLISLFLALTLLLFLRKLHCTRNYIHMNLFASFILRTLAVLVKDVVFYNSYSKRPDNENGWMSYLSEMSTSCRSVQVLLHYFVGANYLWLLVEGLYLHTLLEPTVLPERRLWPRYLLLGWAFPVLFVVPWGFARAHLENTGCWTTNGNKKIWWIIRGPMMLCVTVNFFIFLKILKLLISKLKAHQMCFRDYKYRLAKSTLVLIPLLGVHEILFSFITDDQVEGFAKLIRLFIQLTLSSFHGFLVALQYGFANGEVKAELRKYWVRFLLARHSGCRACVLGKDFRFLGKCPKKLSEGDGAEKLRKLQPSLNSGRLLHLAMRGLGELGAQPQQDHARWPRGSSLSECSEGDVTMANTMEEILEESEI
Method in brief: (§1)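 Steps: infect HEK cells with human GLP1 or GLP2 receptor BacMam for 24 hours; freeze; resuspend in HBSS with 0.5 mM IBMX; incubate with agonist 45 min at 37° C; lyse with HTRF detection reagents and read cAMP.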

[2] = target: T2, human GLP1 receptor (Homo sapiens, UniProt P43220); assay: cAMP accumulation assay, functional agonism of human GLP1 receptor; format: cell-based; conditions: HEK cells infected with human GLP1 receptor BacMam virus, HTRF cAMP; for Emax: HEK293, read-out: Human GLP-1R agonist cAMP Emax; for EC50: read-out: Human GLP-1R agonist cAMP pEC50 (converted)
T2 construct: expressed in transfected cells; host or cells: HEK cells, BacMam virus transduction
T2 sequence (P43220 24-463): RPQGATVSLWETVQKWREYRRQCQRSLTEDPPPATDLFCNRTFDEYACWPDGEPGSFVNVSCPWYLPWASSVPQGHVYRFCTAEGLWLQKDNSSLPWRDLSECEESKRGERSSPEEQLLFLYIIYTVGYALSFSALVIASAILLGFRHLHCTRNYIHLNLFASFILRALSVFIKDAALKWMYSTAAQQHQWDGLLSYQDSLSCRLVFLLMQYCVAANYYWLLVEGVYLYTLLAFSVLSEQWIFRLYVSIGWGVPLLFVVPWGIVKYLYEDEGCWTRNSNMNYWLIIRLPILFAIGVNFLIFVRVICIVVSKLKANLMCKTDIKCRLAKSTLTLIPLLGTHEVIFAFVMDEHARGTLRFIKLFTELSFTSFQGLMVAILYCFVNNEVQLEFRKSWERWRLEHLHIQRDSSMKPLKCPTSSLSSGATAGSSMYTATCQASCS
Method in brief: as §1

[3] = Stability of peptides in rat intestinal fluid (ratIF); conditions: Sprague Dawley, undiluted rat small intestinal fluid (ratIF)
[4] = target: T3, mouse GLP2 receptor (Mus musculus, UniProt Q5IXF8); assay: cAMP accumulation assay, functional agonism of mouse GLP2 receptor; format: cell-based; conditions: HEK cells transiently transfected with mouse GLP2 receptor, HTRF cAMP; for Emax: HEK293, read-out: Mouse GLP-2R agonist cAMP Emax; for EC50: read-out: Mouse GLP-2R agonist cAMP pEC50 (converted)
T3 construct: expressed in transfected cells; host or cells: HEK cells, transient transfection with GeneJuice
T3 sequence (Q5IXF8 1-512): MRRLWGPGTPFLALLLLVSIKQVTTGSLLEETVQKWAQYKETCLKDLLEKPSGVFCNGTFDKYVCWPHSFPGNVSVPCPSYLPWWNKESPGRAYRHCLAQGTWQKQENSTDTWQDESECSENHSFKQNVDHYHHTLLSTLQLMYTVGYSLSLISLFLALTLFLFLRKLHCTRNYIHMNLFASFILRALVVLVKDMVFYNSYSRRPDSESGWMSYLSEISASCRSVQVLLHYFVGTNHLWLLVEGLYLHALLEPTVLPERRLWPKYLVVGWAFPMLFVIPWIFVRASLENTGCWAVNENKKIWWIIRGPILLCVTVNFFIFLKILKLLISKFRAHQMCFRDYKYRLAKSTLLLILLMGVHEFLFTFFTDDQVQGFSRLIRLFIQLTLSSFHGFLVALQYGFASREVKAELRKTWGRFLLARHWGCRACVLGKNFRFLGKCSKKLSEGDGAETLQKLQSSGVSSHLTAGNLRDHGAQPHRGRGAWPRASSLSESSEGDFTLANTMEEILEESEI
Method in brief: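 Transiently transfected HEK cells (24 h, frozen, 8000/well) in HBSS with 0.5 mM IBMX exposed to compound concentration series for 45 min at 37 °C. cAMP measured by HTRF after lysis and 1 h at RT; pEC50 from four-parameter concentration-response fit.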

[5] = target: T4, mouse GLP1 receptor (Mus musculus, UniProt O35659); assay: cAMP accumulation assay, functional agonism of mouse GLP1 receptor; format: cell-based; conditions: HEK cells transiently transfected with mouse GLP1 receptor, HTRF cAMP; for Emax: HEK293, read-out: Mouse GLP-1R agonist cAMP Emax; for EC50: read-out: Mouse GLP-1R agonist cAMP pEC50 (converted)
T4 construct: expressed in transfected cells; host or cells: HEK cells, transient transfection with GeneJuice
T4 sequence (O35659 22-463): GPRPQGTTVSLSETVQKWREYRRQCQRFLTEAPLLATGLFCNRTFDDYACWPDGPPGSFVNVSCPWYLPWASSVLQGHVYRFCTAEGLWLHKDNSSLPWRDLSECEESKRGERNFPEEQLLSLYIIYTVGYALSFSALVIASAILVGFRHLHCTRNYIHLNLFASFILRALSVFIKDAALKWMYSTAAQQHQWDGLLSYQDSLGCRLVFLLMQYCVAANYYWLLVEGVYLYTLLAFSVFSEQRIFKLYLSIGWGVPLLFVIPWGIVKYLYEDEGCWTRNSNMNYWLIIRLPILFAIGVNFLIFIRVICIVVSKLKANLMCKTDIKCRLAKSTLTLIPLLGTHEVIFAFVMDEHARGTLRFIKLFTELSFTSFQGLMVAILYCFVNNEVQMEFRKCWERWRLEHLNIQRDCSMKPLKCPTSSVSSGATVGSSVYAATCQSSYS
Method: CAMP production upon agonist stimulation of mouse GLP2 or GLP1 receptors was assessed utilizing HiRange cAMP kit (Cisbio). In brief, HEK cells were transiently transfected for 24 hours with cDNA using GeneJuice Transfection reagent (EMD Millipore) and frozen at −80° C. for later use in the assay. […] Cells were prepared in the assay buffer (HBSS (Lonza) supplemented with 0.5 mM IBMX (Tocris)). After 45 min incubation at 37° C., the reaction was stopped by addition of the HTRF detection reagents in the lysis buffer provided in the kit. Following 1-hour incubation at RT, plates were read on Pherastar FS (BMG Labtech, Inc.) using standard HTRF settings. Dotmatics Studies software was used for calculation of pEC50 values by fitting data to a four-parameter concentration response curve.

[6] = Stability of peptides in Fasted-State Simulated Intestinal Fluid (FaSSIF); format: in vitro ADME; conditions: FaSSIF with 10 mg/ml pancreatin; FaSSIF pH 6.5 with 10 mg/ml pancreatin, 37° C., t = 15 mins
Method: Stability of peptides was tested in Fasted-State Simulated Intestinal Fluid (FaSSIF) prepared according to manufacturer's protocol (Biorelevant, art.no. FFF01, pH 6.5). […] FaSSIF was pre-incubated for 15 min at 37° C. and spiked with test and reference item working solutions. Experiments were conducted in duplicate in a non-serial manner. The total incubation volume per replicate was 150 μl. Sampling time points for test items were 0, 0.5, 2, 5, 10, 15 and 30 min. All samples and calibration standards (prepared in FaSSIF) were precipitated by addition of 300 μl precipitant (ACN / 2% acetic acid / 0.2% HFBA, (precipitation reagent, PR)) containing internal standard (ISTD) to 150 μl sample. After incubation for 1 h at room temperature all samples were centrifuged for 10 min at 2,200×g (room temperature).

Emax [1]	EC50 [1]	Emax [2]	EC50 [2]	remaining at 0.5 h [3]	Emax [4]	EC50 [4]	Emax [5]	EC50 [5]	remaining at 0.25 h [6]	SMILES
99.3%	0.0631 nM	97.1%	0.251 nM	11%	–	–	–	–	–	CCCC[C@H](NC(=O)[C@H](CCC(=O)O)NC(=O)[C@@H]1CC(=O)NCCCC[C@H](NC(=O)[C@H](CCC(N)=O)NC(=O)C(C)(C)NC(=O)[C@@H](N)Cc2c[nH]cn2)C(=O)N[C@@H](CO)C(=O)N[C@@H](Cc2ccccc2)C(=O)N[C@@H](CO)C(=O)N1)C(=O)N[C@H](Cc1ccccc1)C(=O)N[C@H](C(=O)N[C@@](C)(CC(C)C)C(=O)N[C@@H](CC(C)C)C(=O)N[C@@H](CC(=O)O)C(=O)N[C@H]1CCC(=O)NCCCC[C@@H](C(=O)N[C@@H](CC(=O)O)C(=O)N[C@@H](Cc2ccccc2)C(=O)N[C@H](C(=O)N[C@H]2CCC(=O)NCCCC[C@@H](C(=O)N[C@H](C(=O)N[C@@H](CCCCN)C(N)=O)[C@@H](C)O)NC(=O)[C@H]([C@@H](C)CC)NC(=O)[C@H](CC(C)C)NC(=O)[C@H](Cc3c[nH]c4ccccc34)NC2=O)[C@@H](C)CC)NC(=O)[C@H](C)NC(=O)[C@H](C)NC(=O)[C@H](CCCCN)NC1=O)[C@@H](C)O [Example 27] (H-H[Aib]QKSFSDE[Nle][dF]T[αMeL]LDEKAAKDFIEWLIKTK-NH2; lactam 4-8, 16-20, 24-28; N-terminus and C-terminus assumed)
102%	0.00251 nM	99.6%	3.16 nM	–	98.4%	0.00631 nM	94.5%	0.794 nM	10.5%	CCCC[C@H](NC(=O)[C@H](CCC(=O)O)NC(=O)[C@H](CC(=O)O)NC(=O)[C@H](CO)NC(=O)[C@H](Cc1ccccc1)NC(=O)[C@H](CO)NC(=O)CNC(=O)[C@H](CC(=O)O)NC(=O)C(C)(C)NC(=O)[C@@H](N)Cc1c[nH]cn1)C(=O)N[C@H](Cc1ccccc1)C(=O)N[C@H](C(=O)N[C@H](C(=O)N[C@@H](CC(C)C)C(=O)N[C@@H](CC(=O)O)C(=O)N[C@H]1CCC(=O)NCCCC[C@@H](C(=O)N[C@@H](CC(=O)O)C(=O)N[C@@H](Cc2ccccc2)C(=O)N[C@H](C(=O)N[C@@H](CC(N)=O)C(=O)N[C@@H](Cc2c[nH]c3ccccc23)C(=O)N[C@@H](CC(C)C)C(=O)N[C@H](C(=O)N[C@@H](CCC(N)=O)C(=O)N[C@H](C(=O)N[C@@H](CCCCN)C(=O)N[C@H](C(=O)N[C@H](C(=O)N[C@@H](CC(=O)O)C(N)=O)[C@@H](C)O)[C@@H](C)CC)[C@@H](C)O)[C@@H](C)CC)[C@@H](C)CC)NC(=O)[C@H](C)NC(=O)[C@H](C)NC(=O)[C@H](CCCCN)NC1=O)[C@@H](C)CC)[C@@H](C)O [Example 89] (H-H[Aib]DGSFSDE[Nle][dF]TILDEKAAKDFINWLIQTKITD-NH2; lactam 16-20 (inferred); C-terminus assumed)
98.6%	0.00501 nM	95.3%	3.98 nM	–	98.5%	0.251 nM	95.5%	2.51 nM	13.5%	CCCC[C@H](NC(=O)[C@H](CCC(=O)O)NC(=O)[C@H](CC(=O)O)NC(=O)[C@H](CO)NC(=O)[C@H](Cc1ccccc1)NC(=O)[C@H](CO)NC(=O)CNC(=O)[C@H](CC(=O)O)NC(=O)C(C)(C)NC(=O)[C@@H](N)Cc1c[nH]cn1)C(=O)N[C@H](Cc1ccccc1)C(=O)N[C@H](C(=O)N[C@H](C(=O)N[C@@H](CC(C)C)C(=O)N[C@@H](CC(=O)O)C(=O)N[C@@H](CC(C)C)C(=O)N[C@@H](CCCCN)C(=O)N[C@@H](C)C(=O)N[C@@H](C)C(=O)N[C@@H](CCCCN)C(=O)N[C@@H](CC(=O)O)C(=O)N[C@@H](Cc1ccccc1)C(=O)N[C@H](C(=O)N[C@@H](CC(N)=O)C(=O)N[C@@H](Cc1c[nH]c2ccccc12)C(=O)N[C@@H](CC(C)C)C(=O)N[C@H](C(=O)N[C@@H](CCC(N)=O)C(=O)N[C@H]1CCCCNC(=O)CC[C@@H](C(N)=O)NC(=O)[C@H]([C@@H](C)O)NC(=O)[C@H]([C@@H](C)CC)NC(=O)[C@H](CCCCN)NC1=O)[C@@H](C)CC)[C@@H](C)CC)[C@@H](C)CC)[C@@H](C)O [Example 93] (H-H[Aib]DGSFSDE[Nle][dF]TILDLKAAKDFINWLIQKKITE-NH2; lactam 29-33; N-terminus and C-terminus assumed)
101%	0.00316 nM	97%	2 nM	–	99.2%	0.2 nM	96.3%	1.58 nM	3.4%	CCCC[C@H](NC(=O)[C@H](CCC(=O)O)NC(=O)[C@H](CC(=O)O)NC(=O)[C@H](CO)NC(=O)[C@H](Cc1ccccc1)NC(=O)[C@H](CO)NC(=O)CNC(=O)[C@H](CC(=O)O)NC(=O)C(C)(C)NC(=O)[C@@H](N)Cc1c[nH]cn1)C(=O)N[C@H](Cc1ccccc1)C(=O)N[C@H](C(=O)N[C@H](C(=O)N[C@@H](CC(C)C)C(=O)N[C@@H](CC(=O)O)C(=O)N[C@H]1CCCCNC(=O)CC[C@@H](C(=O)N[C@@H](CC(=O)O)C(=O)N[C@@H](Cc2ccccc2)C(=O)N[C@H](C(=O)N[C@@H](CC(N)=O)C(=O)N[C@@H](Cc2c[nH]c3ccccc23)C(=O)N[C@@H](CC(C)C)C(=O)N[C@H](C(=O)N[C@@H](CCC(N)=O)C(=O)N[C@H]2CCCCNC(=O)CC[C@@H](C(N)=O)NC(=O)[C@H]([C@@H](C)O)NC(=O)[C@H]([C@@H](C)CC)NC(=O)[C@H](CCCCN)NC2=O)[C@@H](C)CC)[C@@H](C)CC)NC(=O)[C@H](C)NC(=O)[C@H](C)NC(=O)[C@H](CCCCN)NC1=O)[C@@H](C)CC)[C@@H](C)O [Example 113] (H-H[Aib]DGSFSDE[Nle][dF]TILDKKAAEDFINWLIQKKITE-NH2; lactam 16-20, 29-33; C-terminus assumed)
